In PubChem BioAssay (NCI):
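Briefly, cells in 96-well plates were exposed to five compound concentrations for 48 h, and endpoints were estimated by linear interpolation. GI50 = concentration required for 50% inhibition of growth. TGI is the concentration that stops growth completely.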

Columns and labels:
Test in all cases: NCI tumour cell line growth inhibition, 48 h
K-562 leukemia = tested on: K-562 leukemia
HCT-15 colon = tested on: HCT-15 colon
HCT-116 colon = tested on: HCT-116 colon
SK-MEL-5 melanoma = tested on: SK-MEL-5 melanoma
A498 renal = tested on: A498 renal
RPMI-8226 leukemia = tested on: RPMI-8226 leukemia
NCI-H226 lung = tested on: NCI-H226 lung
EKVX NSCLC = tested on: EKVX NSCLC
OVCAR-8 ovarian = tested on: OVCAR-8 ovarian
COLO 205 colon = tested on: COLO 205 colon
HL-60(TB) leukemia = tested on: HL-60(TB) leukemia
MDA-MB-435 = tested on: MDA-MB-435
SF-539 CNS = tested on: SF-539 CNS
NCI-H23 lung = tested on: NCI-H23 lung
U251 CNS = tested on: U251 CNS
LOX IMVI melanoma = tested on: LOX IMVI melanoma
PC-3 prostate = tested on: PC-3 prostate
DU-145 prostate = tested on: DU-145 prostate
NCI-H522 lung = tested on: NCI-H522 lung
SNB-19 CNS = tested on: SNB-19 CNS
HS 578T breast = tested on: HS 578T breast
TK-10 renal = tested on: TK-10 renal
SK-MEL-28 melanoma = tested on: SK-MEL-28 melanoma
OVCAR-3 ovarian = tested on: OVCAR-3 ovarian
HOP-92 NSCLC = tested on: HOP-92 NSCLC
HOP-62 NSCLC = tested on: HOP-62 NSCLC
ACHN renal = tested on: ACHN renal
SN12C renal = tested on: SN12C renal
OVCAR-4 ovarian = tested on: OVCAR-4 ovarian

CN(C)c1nc(NCCNS(=O)(=O)c2ccc(C(=O)/C=C/c3ccc(C(F)(F)F)cc3)cc2)nc(N2CCOCC2)n1
TGI (K-562 leukemia): > 100 µM
GI50 (HCT-15 colon): 1.86 µM
TGI (HCT-15 colon): 3.62 µM
GI50 (HCT-116 colon): 3.19 µM
TGI (HCT-116 colon): 10 µM
GI50 (SK-MEL-5 melanoma): 15.8 µM
TGI (SK-MEL-5 melanoma): 29.5 µM
GI50 (A498 renal): 13.3 µM
TGI (A498 renal): 26.6 µM
GI50 (RPMI-8226 leukemia): 1.77 µM
TGI (RPMI-8226 leukemia): 5.72 µM
GI50 (NCI-H226 lung): 16.1 µM
TGI (NCI-H226 lung): 35.6 µM
GI50 (EKVX NSCLC): 14.3 µM
TGI (EKVX NSCLC): 27.4 µM
GI50 (OVCAR-8 ovarian): 14.4 µM
TGI (OVCAR-8 ovarian): 28.1 µM
GI50 (COLO 205 colon): 15 µM
TGI (COLO 205 colon): 32.4 µM
GI50 (HL-60(TB) leukemia): 5.12 µM
TGI (HL-60(TB) leukemia): 86.3 µM
GI50 (MDA-MB-435): 10.3 µM
TGI (MDA-MB-435): 23 µM
GI50 (SF-539 CNS): 13 µM
TGI (SF-539 CNS): 25.7 µM
GI50 (NCI-H23 lung): 13 µM
TGI (NCI-H23 lung): 26.2 µM
GI50 (U251 CNS): 2.95 µM
TGI (U251 CNS): 11 µM
GI50 (LOX IMVI melanoma): 1.68 µM
TGI (LOX IMVI melanoma): 3.16 µM
GI50 (PC-3 prostate): 10.8 µM
TGI (PC-3 prostate): 25.4 µM
GI50 (DU-145 prostate): 15.4 µM
TGI (DU-145 prostate): 28.9 µM
GI50 (NCI-H522 lung): 15.2 µM
TGI (NCI-H522 lung): 29.8 µM
GI50 (SNB-19 CNS): 13.5 µM
TGI (SNB-19 CNS): 26.4 µM
GI50 (HS 578T breast): 17.8 µM
TGI (HS 578T breast): 64.4 µM
GI50 (TK-10 renal): 15.5 µM
TGI (TK-10 renal): 29.5 µM
GI50 (SK-MEL-28 melanoma): 14.4 µM
TGI (SK-MEL-28 melanoma): 27.5 µM
GI50 (OVCAR-3 ovarian): 16.4 µM
TGI (OVCAR-3 ovarian): 30.6 µM
GI50 (HOP-92 NSCLC): 15.2 µM
TGI (HOP-92 NSCLC): 31.5 µM
GI50 (HOP-62 NSCLC): 17 µM
TGI (HOP-62 NSCLC): 32.3 µM
GI50 (ACHN renal): 8.6 µM
TGI (ACHN renal): 20.7 µM
GI50 (SN12C renal): 12.5 µM
TGI (SN12C renal): 25 µM
GI50 (OVCAR-4 ovarian): 14.8 µM
TGI (OVCAR-4 ovarian): 28.9 µM
